One test addresses PD-1/PD-L1 (Homo sapiens, UniProt Q9NZQ7). Nature of the test: PD-1/PD-L1 biochemical protein-protein interaction assay (ALPHA). As to conditions: 0.3 nM His tagged PD-L1, 2.5 nM biotinylated Fc-PD-1, 60 minutes at 25° C., read-out: IC50 PD-L1-PD-1 Alpha IC50-mono PD-L1-fcP-D1. The test is classed as binding. The gist of the method:
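Compound blockade of the PD-1/PD-L1 extracellular-domain interaction measured as reduced ALPHA signal after 60 min at 25 °C, pH 7.4 Hepes buffer with EDTA, Tween 20 and BSA. Final proteins: His-tagged PD-L1 0.3 nM, biotinylated Fc-PD-1 2.5 nM; four-parameter curve fit gives IC50.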

The next test addresses T1, PD-1/PD-L1 interaction (Homo sapiens, UniProt Q9NZQ7).
T1 construct: expressed in transfected cells; host or cells: CHO cells (aAPC-PD-L1) co-cultured with Jurkat cells overexpressing PD-1 and an NFAT-luciferase reporter
Kind of test: PD-1/PD-L1 NFAT reporter co-culture assay. As to conditions: Jurkat PD-1 NFAT-luciferase cells co-cultured with aAPC-PD-L1 CHO cells, 6 hrs at 37° C.; read-out: EC50 NFAT Luciferase. It is filed as cell-based. In short, it runs like this: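 First, CHO cells displaying anti-CD3 antibody and PD-L1 were plated overnight. Next, compound-treated PD-1 Jurkat NFAT-luciferase reporter cells in 2% FBS RPMI were added for 6 h at 37 °C. Finally, ONE-Glo luminescence was read and EC50 values fitted with a four-parameter equation.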

Bounds are passed on as bounds.

Sequence of PD-1/PD-L1 (Q9NZQ7 19-238 limits assumed): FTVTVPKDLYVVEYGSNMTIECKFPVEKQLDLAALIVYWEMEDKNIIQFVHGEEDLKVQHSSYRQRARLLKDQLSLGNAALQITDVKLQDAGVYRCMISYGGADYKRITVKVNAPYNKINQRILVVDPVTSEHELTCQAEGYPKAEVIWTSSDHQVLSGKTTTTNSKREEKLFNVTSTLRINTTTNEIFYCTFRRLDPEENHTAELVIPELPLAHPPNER
T1 sequence (Q9NZQ7 19-290): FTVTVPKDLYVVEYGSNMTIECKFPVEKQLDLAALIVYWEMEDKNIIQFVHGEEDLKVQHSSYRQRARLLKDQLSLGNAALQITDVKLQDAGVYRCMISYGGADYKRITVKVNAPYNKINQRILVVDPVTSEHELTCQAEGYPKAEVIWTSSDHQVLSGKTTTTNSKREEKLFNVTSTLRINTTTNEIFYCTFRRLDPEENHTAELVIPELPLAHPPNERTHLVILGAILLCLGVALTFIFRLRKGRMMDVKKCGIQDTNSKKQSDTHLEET

Take `COc1nc(OCc2cccc(-c3cccc(COc4ccc(CNC[C@H](O)CC(=O)O)c(OC)n4)c3Cl)c2Cl)ccc1CNC[C@H](O)CC(=O)O` [Example 188, (3R,3′R)-4,4′-((((((2,2′-Dichloro-[1,1′-biphenyl]-3,3′-diyl)bis(methylene))bis(oxy))bis(2-methoxypyridine-6,3-diyl))bis(methylene))bis(azanediyl))bis(3-hydroxybutanoic acid)]: on PD-1/PD-L1, the IC50 worked out at 0.3 nM. In addition, the EC50 on PD-1/PD-L1 interaction was found to be 1550 nM.

Regarding `Cc1c(COc2cc(OCc3cncc(C#N)c3)c(CNCCO)cc2Cl)cccc1-c1cccc(COc2cc(OCC3CC3)c(CNCCO)cc2Cl)c1C` [Example 199, 5-((4-Chloro-5-((3′-((2-chloro-5-(cyclopropylmethoxy)-4-(((2-hydroxyethyl)amino)methyl)phenoxy)methyl)-2,2′-dimethyl-[1,1′-biphenyl]-3-yl)methoxy)-2-(((2-hydroxyethyl)amino)methyl)phenoxy)methyl)nicotinonitrile], the IC50 on PD-1/PD-L1 was found to be 188 nM. In addition, the EC50 on PD-1/PD-L1 interaction amounted to 2150 nM.

For the compound `Cc1c(COc2cc(OCc3cncc(C#N)c3)c(CNCCO)cc2Cl)cccc1-c1cccc(COc2cc(OCc3ccc(F)c(C#N)c3)c(CNCCO)cc2Cl)c1C` [Example 200, 5-((4-Chloro-5-((3′-((2-chloro-5-((3-cyano-4-fluorobenzyl)oxy)-4-(((2-hydroxyethyl)amino)methyl)phenoxy)methyl)-2,2′-dimethyl-[1,1′-biphenyl]-3-yl)methoxy)-2-(((2-hydroxyethyl)amino)methyl)phenoxy)methyl)nicotinonitrile], the IC50 on PD-1/PD-L1 worked out at 138 nM. In addition, the EC50 at PD-1/PD-L1 interaction was 893 nM.

`COc1nc(OCc2cccc(-c3cccc(COc4cc(OCc5cncc(C#N)c5)c(CNCCO)cc4Cl)c3C)c2C)ccc1CNCCO` [Example 201, 5-((4-Chloro-2-(((2-hydroxyethyl)amino)methyl)-5-((3′-(((5-(((2-hydroxyethyl)amino)methyl)-6-methoxypyridin-2-yl)oxy)methyl)-2,2′-dimethyl-[1,1′-biphenyl]-3-yl)methoxy)phenoxy)methyl)nicotinonitrile]: at PD-1/PD-L1, the IC50 was determined as 31.2 nM. Besides, the EC50 at PD-1/PD-L1 interaction was determined as 1110 nM.

On to `COc1nc(OCc2cccc(-c3cccc(COc4cc(OCc5cncc(C#N)c5)c(CNC[C@@H](O)CC(=O)O)cc4Cl)c3C)c2C)ccc1CNCCO` [Example 202, (S)-4-((5-Chloro-2-((5-cyanopyridin-3-yl)methoxy)-4-((3′-(((5-(((2-hydroxyethyl)amino)methyl)-6-methoxypyridin-2-yl)oxy)methyl)-2,2′-dimethyl-[1,1′-biphenyl]-3-yl)methoxy)benzyl)amino)-3-hydroxybutanoic acid], for which the IC50 at PD-1/PD-L1 was 3.2 nM. Also, the EC50 on PD-1/PD-L1 interaction amounted to 1920 nM.

In the case of `Cc1c(COc2cc(OCc3cncc(C#N)c3)c(CNCCO)cc2Cl)cccc1-c1cccc(COc2ccc(CNCCO)cc2C(F)(F)F)c1C` [Example 204, 5-((4-Chloro-2-(((2-hydroxyethyl)amino)methyl)-5-((3′-((4-(((2-hydroxyethyl)amino)methyl)-2-(trifluoromethyl)phenoxy)methyl)-2,2′-dimethyl-[1,1′-biphenyl]-3-yl)methoxy)phenoxy)methyl)nicotinonitrile], on PD-1/PD-L1, the IC50 is 25.7 nM. Further, the EC50 at PD-1/PD-L1 interaction worked out at 927 nM.

As for `Cc1c(COc2cc(OCc3cncc(C#N)c3)c(CNCCO)cc2Cl)cccc1-c1cccc(COc2cc(OCc3cncc(C#N)c3)c(CNC[C@@H](O)CC(=O)O)cc2Cl)c1C` [Example 207, (S)-4-((5-Chloro-4-((3′-((2-chloro-5-((5-cyanopyridin-3-yl)methoxy)-4-(((2-hydroxyethyl)amino)methyl)phenoxy)methyl)-2,2′-dimethyl-[1,1′-biphenyl]-3-yl)methoxy)-2-((5-cyanopyridin-3-yl)methoxy)benzyl)amino)-3-hydroxybutanoic acid], at PD-1/PD-L1, the IC50 was 2 nM. Besides, on PD-1/PD-L1 interaction, the EC50 turned out to be 1550 nM.

`Cc1c(COc2cc(OCc3cncc(C#N)c3)c(CNC[C@@H](O)CC(=O)O)cc2Cl)cccc1-c1cncc(COc2cc(OCc3cncc(C#N)c3)c(CNC[C@@H](O)CC(=O)O)cc2Cl)c1` [Example 208, (S)-4-((4-((5-(3-((4-((((S)-3-Carboxy-2-hydroxypropyl)amino)methyl)-2-chloro-5-((5-cyanopyridin-3-yl)methoxy)phenoxy)methyl)-2-methylphenyl)pyridin-3-yl)methoxy)-5-chloro-2-((5-cyanopyridin-3-yl)methoxy)benzyl)amino)-3-hydroxybutanoic acid]: the IC50 at PD-1/PD-L1 came to 1.4 nM. Moreover, the EC50 at PD-1/PD-L1 interaction was determined as 10600 nM.

`Cc1c(COc2cc(OCc3cncc(C#N)c3)c(CNCC[C@H](O)C(=O)O)cc2Cl)cccc1-c1cccc(COc2cc(OCc3cncc(C#N)c3)c(CNCC[C@H](O)C(=O)O)cc2Cl)c1C` [Example 215, (2S,2′S)-4,4′-((((((2,2′-dimethyl-[1,1′-biphenyl]-3,3′-diyl)bis(methylene))bis(oxy))bis(5-chloro-2-((5-cyanopyridin-3-yl)methoxy)-4,1-phenylene))bis(methylene))bis(azanediyl))bis(2-hydroxybutanoic acid)]: on PD-1/PD-L1, the IC50 amounted to 1.26 nM. In addition, the EC50 at PD-1/PD-L1 interaction is 413 nM.

On to `Cc1c(COc2cc(OCc3ccnc(C#N)c3)c(CNC[C@@H](O)CC(=O)O)cc2Cl)cccc1-c1cccc(COc2cc(OCc3ccnc(C#N)c3)c(CNC[C@@H](O)CC(=O)O)cc2Cl)c1C` [Example 219, (3S,3′S)-4,4′-((((((2,2′-dimethyl-[1,1′-biphenyl]-3,3′-diyl)bis(methylene))bis(oxy))bis(5-chloro-2-((2-cyanopyridin-4-yl)methoxy)-4,1-phenylene))bis(methylene))bis(azanediyl))bis(3-hydroxybutanoic acid)], for which, at PD-1/PD-L1, the IC50 was determined as 0.2 nM. The EC50 at PD-1/PD-L1 interaction was found to be 558 nM.

In the case of `Cc1c(COc2cc(OCc3cc(C#N)cc(C#N)c3)c(CNC[C@@H](O)CC(=O)O)cc2Cl)cccc1-c1cccc(COc2cc(OCc3cc(C#N)cc(C#N)c3)c(CNC[C@@H](O)CC(=O)O)cc2Cl)c1C` [Example 220, (3S,3′S)-4,4′-((((((2,2′-dimethyl-[1,1′-biphenyl]-3,3′-diyl)bis(methylene))bis(oxy))bis(5-chloro-2-((3,5-dicyanobenzyl)oxy)-4,1-phenylene))bis(methylene))bis(azanediyl))bis(3-hydroxybutanoic acid)], the IC50 on PD-1/PD-L1 stood at 2 nM. In addition, the EC50 at PD-1/PD-L1 interaction turned out to be 177 nM.

`Cc1c(COc2cc(OCc3cccc(C#N)n3)c(CNC[C@@H](O)CC(=O)O)cc2Cl)cccc1-c1cccc(COc2cc(OCc3cccc(C#N)n3)c(CNC[C@@H](O)CC(=O)O)cc2Cl)c1C` [Example 221, (3S,3′S)-4,4′-((((((2,2′-dimethyl-[1,1′-biphenyl]-3,3′-diyl)bis(methylene))bis(oxy))bis(5-chloro-2-((6-cyanopyridin-2-yl)methoxy)-4,1-phenylene))bis(methylene))bis(azanediyl))bis(3-hydroxybutanoic acid)]: at PD-1/PD-L1, the IC50 was found to be 1.5 nM. The EC50 on PD-1/PD-L1 interaction worked out at 274 nM.

As to `Cc1c(COc2cc(OCc3cncc(C(N)=O)c3)c(CNC[C@@H](O)CC(=O)O)cc2Cl)cccc1-c1cccc(COc2cc(OCc3cncc(C(N)=O)c3)c(CNC[C@@H](O)CC(=O)O)cc2Cl)c1C` [Example 222, (3S,3′S)-4,4′-((((((2,2′-dimethyl-[1,1′-biphenyl]-3,3′-diyl)bis(methylene))bis(oxy))bis(2-((5-carbamoylpyridin-3-yl)methoxy)-5-chloro-4,1-phenylene))bis(methylene))bis(azanediyl))bis(3-hydroxybutanoic acid)], the half-inhibitory concentration (IC50) at PD-1/PD-L1 was 0.3 nM. For the same compound, on PD-1/PD-L1 interaction, the concentration giving a half-maximal response (EC50) came out at 856 nM.

As to `Cc1c(COc2ccc(CNCCO)cc2C(F)(F)F)cccc1-c1cccc(COc2ccc(CNCCO)cc2C(F)(F)F)c1C` [Example 223, 2,2′-((((((2,2′-dimethyl-[1,1′-biphenyl]-3,3′-diyl)bis(methylene))bis(oxy))bis(3-(trifluoromethyl)-4,1-phenylene))bis(methylene))bis(azanediyl))bis(ethan-1-ol)], the 50% inhibitory concentration (IC50) on PD-1/PD-L1 was 34.6 nM. The EC50 at PD-1/PD-L1 interaction was at least 50000 nM.

Turning to `Cc1c(COc2ccc(CNC[C@@H](O)CC(=O)O)cc2C(F)(F)F)cccc1-c1cccc(COc2ccc(CNC[C@@H](O)CC(=O)O)cc2C(F)(F)F)c1C` [Example 224, (3S,3′S)-4,4′-((((((2,2′-dimethyl-[1,1′-biphenyl]-3,3′-diyl)bis(methylene))bis(oxy))bis(3-(trifluoromethyl)-4,1-phenylene))bis(methylene))bis(azanediyl))bis(3-hydroxybutanoic acid)], the IC50 on PD-1/PD-L1 turned out to be 1.8 nM. Further, the EC50 on PD-1/PD-L1 interaction was determined as 24900 nM.

`COc1nc(/C=C/c2cccc(-c3cccc(/C=C/c4ccc(CNC[C@@H](O)CC(=O)O)c(OC)n4)c3C)c2C)ccc1CNC[C@@H](O)CC(=O)O` [Example 238, (3S,3′S)-4,4′-(((((1E,1′E)-(2,2′-dimethyl-[1,1′-biphenyl]-3,3′-diyl)bis(ethene-2,1-diyl))bis(2-methoxypyridine-6,3-diyl))bis(methylene))bis(azanediyl))bis(3-hydroxybutanoic acid)]: the 50% inhibitory concentration (IC50) at PD-1/PD-L1 amounted to 0.9 nM. Further, at PD-1/PD-L1 interaction, the concentration for a half-maximal effect (EC50) came to 2120 nM.

The record behind these values is US12590062B2, “PD-1/PD-L1 inhibitors” (Gilead Sciences, Inc., priority 2017, dated 2026).
